# In patent USRE35517E, “Method, compositions, and compounds for modulating brain excitability” (priority 1992, dated 1997):
# Like-named read-outs stand apart in the source and are kept apart here.
# Tests used:
# [1] = tested on: GABA/benzodiazepine receptor-chloride ionopore complex (GBR complex); test: Dissociation kinetics of [35S]TBPS in rat cerebral cortical membranes; format: binding; details: for biphasic dissociation mechanism of [35S]TBPS: FIGS. 2A, 2B, pentobarbital 30 micromolar, alphaxalone 300 nanomolar, 5-alpha-pregnan-3-alpha-hydroxy-20-one 20 nanomolar; for t1/2, R (rapidly dissociating component) / t1/2, S (slowly dissociating component): 30 nM Na pentobarbital; for Total percentage of specific sites, R: rapidly dissociating component, Na pentobarbital (**P < 0.01 vs control); for Total percentage of specific sites, S: slowly dissociating component, Na pentobarbital (*P < 0.05 vs control)
# Experimental: An assay was performed to determine the effect of pentobarbital on the dissociation kinetics of [^35 S]TBPS in rat cerebral cortical membranes. This assay was performed in accordance with the procedures outlined above. […] Dissociation of bound [^35 ]TBPS was initiated by 2 micromolar TBPS in all cases.
# BZ receptor = test: Modulation of [3H]flunitrazepam binding in rat hippocampal homogenates, with pentobarbital (FIG. 3); details: 1.0 millimolar pentobarbital, 0.25 nM [3H]FLU, absence of GABA
# convulsions = test: Anticonvulsant screen (chemical convulsants and maximal electroshock), overall; format: in vivo, mice; details: in comparison to clinically useful anticonvulsants, benzodiazepines
# Experimental: Experiments were also performed to determine the physiological relevance of these interactions by measuring the ability of the compounds of and used in the invention to modulate TBPS-induced convulsions in Swiss-Webster mice. […] The time to onset of myoclonus (presence of forelimb clonic activity) induced by TBPS was determined by observing each mouse of a period of 45 minutes. Significant differences between the time to onset in control mice vs. steroid-treated mice were determined by Student's t-test. […] The number of animals with tonic and/or clonic convulsions was recorded. In the maximal electroshock test, 50 mA of current at 60 Hz was delivered through corneal electrodes for 200 msec. […] The ED50 (the dose at which the half-maximal effect occurs) dose was determined for each screen.
# Acute lethality (LD50) = details: mice; from therapeutic index
# rotorod performance [2] = test: Rotorod test (sedative potential); parameters: ED50 RR (rotorod): unit not given beside the values; details: mice
# [3] = tested on: GABA/benzodiazepine receptor-chloride ionopore complex (GBR complex); test: Modulation of [35S]TBPS binding in rat cerebral cortex P2 homogenate; parameters: species or system rat (male Sprague-Dawley); details: for +5 μM IC50: inhibition of 2 nM [35S]TBPS binding, +5 μM (GABA); for +5 μM IC50 / CONTROL IC50: 25° C., 90 minutes; for CONTROL IC50: inhibition of basal 2 nM [35S]TBPS binding
# Experimental: These procedures were performed as follows:
# maximal electroshock = tested on: maximal electroshock; parameters: unit not given here; details: mice, cited from earlier work
# metrazol = tested on: metrazol; parameters: key: NP: no protection; details: mice, cited from earlier work
# [4] = tested on: (+)bicuculline-induced seizures; parameters: key: NP: no protection; details: mice, cited from earlier work
# picrotoxin = tested on: picrotoxin; parameters: key: NP: no protection; details: mice, cited from earlier work
# strychnine = tested on: strychnine; parameters: key to ED50 STR (strychnine): NP: no protection; details: mice, cited from earlier work
# rotorod performance [5] = tested on: rotorod performance; parameters: unit not given beside the values; details: mice; data from Swinyard & Woodhead 1982; cited from earlier work
# [6] = tested on: premenstrual syndrome, PND, catamenial epilepsy; details: patients, cited from earlier work
# [7] = [35S]TBPS dissociation, rat cortex, 300 nM alphaxalone, 20 nM a-OH-DHP
# [8] = [35S]TBPS dissociation, rat cortex, Na pentobarbital, 300 nM alphaxalone, 20 nM a-OH-DHP
# [9] = 300 nM alphaxalone, 20 nM a-OH-DHP
# [10] = data from Swinyard & Woodhead 1982
# [11] = data from Swinyard & Woodhead 1982, NP = no protection
# [12] = convulsant administered i.v., data from Worms et al. 1982
structure (smiles),measurement,setting,value
"CC(=O)[C@H]1CC[C@H]2[C@@H]3CC[C@H]4C[C@H](O)CC[C@]4(C)[C@H]3CC[C@]12C [3α-OH-DHP, 3α-hydroxy-5α-pregnan-20-one]",biphasic dissociation mechanism of [35S]TBPS,[1],absent
same,"t1/2, R (rapidly dissociating component)",[1]; [7],6.4 ± 1
same,"t1/2, S (slowly dissociating component)",[1]; [7],76 ± 11
same,"k-1, S (slowly dissociating component)",[1]; [8],0.011 ± 0.002 min⁻¹
same,"Total percentage of specific sites, R",[1]; [9],35 ± 3%
same,influence on the dissociation kinetics of [35S]TBPS binding,[1]; rat cerebral cortex,do not influence the dissociation kinetics
same,"Total percentage of specific sites, S",[1]; [9],68 ± 3%
same,interaction with pentobarbital in the enhancement of [3H]flunitrazepam binding,BZ receptor,does not interact with pentobarbital
same,anticonvulsant activity / profile,convulsions,highly effective with a profile similar to that of the benzodiazepine clonazepam
same,"toxicity, in words",Acute lethality (LD50),very low toxicity
same,ED50 RR (rotorod),rotorod performance [2]; 10 minutes after injection,40-100
same,sedative liability at anticonvulsant doses,rotorod performance [2]; rotorod ED50 compared with (+)bicuculline ED50,low
C[C@]12CC[C@@H]3c4ccc(O)cc4CC[C@H]3[C@@H]1CC[C@@H]2O [17β-ESTRADIOL],+5 μM IC50,[3],INACTIVE
same,CONTROL IC50,[3],INACTIVE
"CC(=O)[C@H]1CC[C@H]2[C@@H]3CC[C@H]4C[C@@H](O)CC[C@]4(C)[C@H]3CC[C@]12C [ALLOPREGNANLONE, 5α-PREGNAN-3β-OL- 20-ONE]",CONTROL IC50,[3],INACTIVE
CC(C)CCC[C@@H](C)[C@H]1CC[C@H]2[C@@H]3CC=C4C[C@@H](O)CC[C@]4(C)[C@H]3CC[C@]12C [CHOLESTEROL],+5 μM IC50,[3],INACTIVE
same,CONTROL IC50,[3],INACTIVE
"C[C@]12C[C@H](O)[C@H]3[C@@H](CCC4=CC(=O)CC[C@@]43C)[C@@H]1CC[C@@H]2C(=O)CO [CORTICOSTERONE, 4-PREGNEN-11β,21- DIOL-3,20-DIONE]",CONTROL IC50,[3],INACTIVE
O=C1CN=C(c2ccccc2Cl)c2cc([N+](=O)[O-])ccc2N1 [Clonazepam],ED50 MES (maximal electroshock),maximal electroshock; [10],93
same,ED50 MTZ (metrazol),metrazol; [11],0.009
same,ED50 BIC (bicuculline),[4]; [11],0.0086
same,ED50 PICRO (picrotoxin),picrotoxin; [11],0.043
same,ED50 STR (strychnine),strychnine; [11],NP
same,ED50 RR (rotorod),rotorod performance [5],0.184
"CC(=O)[C@H]1CC[C@H]2[C@@H]3CC=C4C[C@@H](O)CC[C@]4(C)[C@H]3CC[C@]12C [PREGNENOLONE, 5α-PREGNEN-3β-OL- 20-ONE]",CONTROL IC50,[3],INACTIVE
CC(=O)[C@H]1CC[C@H]2[C@@H]3CCC4=CC(=O)CC[C@]4(C)[C@H]3CC[C@]12C [PROGESTERONE],potency (and efficacy) at the GBR complex,"[3]; in vitro, [35S]TBPS binding",very low potency
same,"effectiveness in the treatment of PMS, PND and catamenial epilepsy",[6]; literature,not consistently effective
same,dose-response relationship in the treatment of PMS,"[6]; Maddocks et al., Dennerstein et al. 1986",no dose-response relationship exists
CCCC(C)C1(CC)C(=O)NC(=O)NC1=O (stereo not shown) [Pentobarbital],biphasic dissociation mechanism of [35S]TBPS,[1],induces a biphasic dissociation mechanism
same,"t1/2, R (rapidly dissociating component)",[1]; [7],4.4 ± 0.3
same,"t1/2, S (slowly dissociating component)",[1]; [7],38 ± 3
same,"k-1, R (rapidly dissociating component)",[1]; [8],0.158 ± 0.013 min⁻¹
same,"k-1, S (slowly dissociating component)",[1]; [8],0.0186 ± 0.0015 min⁻¹
same,"Total percentage of specific sites, R",[1]; [9],48 ± 6%
same,"Total percentage of specific sites, S",[1]; [9],61 ± 6%
CCC1(c2ccccc2)C(=O)NC(=O)NC1=O [Phenobarbital],ED50 MES (maximal electroshock),maximal electroshock; [10],22
same,ED50 MTZ (metrazol),metrazol; [11],13
same,ED50 BIC (bicuculline),[4]; [11],38
same,ED50 PICRO (picrotoxin),picrotoxin; [11],28
same,ED50 STR (strychnine),strychnine; [11],95
same,ED50 RR (rotorod),rotorod performance [5],69
O=C1NC(=O)C(c2ccccc2)(c2ccccc2)N1 [Phenytoin],ED50 MTZ (metrazol),metrazol; [11],NP
same,ED50 BIC (bicuculline),[4]; [11],NP
same,ED50 PICRO (picrotoxin),picrotoxin; [11],NP
same,Maximum protection (strychnine),"strychnine; at 55-100 mg/kg, data from Swinyard & Woodhead 1982",50%
NC(=O)CCC/N=C(\c1ccc(Cl)cc1)c1cc(F)ccc1O [Progabide],ED50 MES (maximal electroshock),maximal electroshock; data from Worms et al. 1982,75
same,ED50 MTZ (metrazol),metrazol; [12],30
same,ED50 BIC (bicuculline),[4]; [12],30
same,ED50 PICRO (picrotoxin),picrotoxin; [12],105
same,ED50 STR (strychnine),strychnine; [12],75
CCCC(CCC)C(=O)O [Valproate],ED50 MES (maximal electroshock),maximal electroshock; [10],272
same,ED50 MTZ (metrazol),metrazol; [11],149
same,ED50 BIC (bicuculline),[4]; [11],360
same,ED50 PICRO (picrotoxin),picrotoxin; [11],387
same,ED50 STR (strychnine),strychnine; [11],293
